Assay results reported in article PMC12285096, “Tirzepatide mitigates Stroke-Induced Blood-Brain barrier disruption by modulating Claudin-1 and C/EBP-α pathways” (Molecular Medicine, 2025).

Assays:
C/EBP-α = C/EBP-α expression in OGD/R-stimulated HBMVECs (real-time PCR, western blot); format: cell-based, human; settings: OGD/R + 50 and 100 nM TZP vs. OGD/R, Fig. 8A, B
Description: 1 mL of RNAiso Plus solution was added to the pulverized rodent cerebral cortex samples or cellular material. Following complete homogenization, the liquid fraction was extracted after high-speed centrifugation. The overall RNA pellet was then washed with 75% ethanol, and the RNA was subsequently harvested for reverse transcription. These specific procedures were carried out in accordance with the instructions provided in the PrimeScript RT reagent Kit (TaKaRa, Japan). Real-time PCR detection was performed following the experimental protocols of the Applied Biosystems 7300 instrument. Gene expression levels were determined based on cycle threshold counts. Claudin-1 and C/EBP-α were analyzed in brain homogenates (right hemisphere: Sham, MCAO, MCAO + TZP) and HBMVECs (Control, […] lysis solution, composed of 1% protease inhibitor in RIPA buffer (Sigma-Aldrich, R0278), was introduced to samples, which were homogenized over ice for 30 min. The homogenate was centrifuged at 13,500 rpm for 10 min at 4 °C. Protein was quantified using the BCA assay kit (Sigma-Aldrich, BCA1), and 50 μg protein/lane was separated on 10% SDS-PAGE and transferred to PVDF in electrophoresis buffer at 200 mA for 2 h. The membrane was blocked with 5% skim milk in TBST for 1 h. […] Bands were detected via ECL (Bio-Rad, 1705061), quantified with ImageJ, and normalized to GAPDH. […]

MCAO mice [1] = test: Behavioral toxicity observation in the MCAO model; settings: TZP 10 nmol/kg i.p. weekly
Claudin-1 = Claudin-1 expression in mouse cortex (RT-PCR, immunostaining); format: in vivo; settings: for Claudin-1 levels (mRNA): C/EBP-α experiment, Fig. 5C; for Claudin-1 expressions in cortex tissue (mRNA, protein by immunostaining): Fig. 3A, B
Description: Mouse brain cortex samples were traditionally fixed in a 10% formaldehyde solution, embedded in paraffin, sectioned, and then dehydrated. Endogenous peroxidase activity was quenched by incubating the sections with a 3% hydrogen peroxide solution for 30 min. Antigen retrieval was carried out using ethylenediaminetetraacetic acid (EDTA) under pressure. After sealing for 30 min, slides were incubated overnight at 4 °C with primary antibodies specific for Claudin-1 (Abcam, USA), diluted at a ratio of 1:400. This incubation period was extended to ensure thorough binding. Subsequently, the slides were washed and incubated with secondary antibodies (1:400, Abcam, USA) for 15 min. Finally, the slides were developed using a DAB chromogenic substrate system, counterstained with hematoxylin, differentiated with an ethanol solution containing hydrochloric acid, subjected to a bluing step with running tap water, rinsed with deionized water, dehydrated, and covered with a protective cover slip. Visual documentation was obtained using a microscope (Zeiss, Germany). 1 mL of RNAiso Plus solution was added to the pulverized rodent cerebral cortex samples or cellular material. Following complete homogenization, the liquid fraction was extracted after high-speed centrifugation. The overall RNA pellet was then washed with 75% ethanol, and the RNA was subsequently harvested for reverse transcription. These specific procedures were carried out in accordance with the instructions provided in the PrimeScript RT reagent Kit (TaKaRa, Japan). Real-time PCR detection was performed following the experimental protocols of the Applied Biosystems 7300 instrument. Gene expression levels were determined based on cycle threshold counts.

MCAO mice [2] = test: TTC staining, infarct volume in MCAO mice; format: in vivo, mouse; settings: MCAO + TZP mice, 10 nmol/kg i.p., MCAO mice 38.5 ± 4.2%, mean ± SD, Fig. 1B
HBMVECs = test: FITC-dextran permeation across OGD/R-challenged HBMVECs; format: cell-based, human
Description: HBMVECs were sourced from ATCC (USA). These cells were cultivated in a medium specifically designed for endothelial cultures, enriched with 10% FBS, and maintained in an incubator set at a temperature of 37 °C with 5% CO2. For OGD/R modeling, the culture medium was replaced with a serum-free, glucose-free medium, and then it was placed in a hypoxic environment (1% O2, 5% CO2, 94% N2) at a 37 °C incubator for 10 h. After 10 h, the normal medium containing serum was added, and the normal oxygen supply was restored. The cells were then kept in a 37 °C constant temperature incubator for 24 h of reoxygenation. To silence C/EBP-α, HBMVECs were transduced with adenovirus harboring a short hairpin RNA (shRNA) specifically designed to knock down C/EBP-α (Ad-viral sh-C/EBP-α) for 48 h. A serum-free medium was used to dilute FITC-dextran to various concentrations for the establishment of a calibration curve. Subsequently, HBMVECs were cultured in the upper section of the Transwell setup. Thereafter, 100 µL of a 1 mg/mL FITC-conjugated dextran solution was added to the upper section and allowed to rest for 1 h in a shielded environment at 37 °C with 5% CO2. Post incubation, 100 µL of fluid was drawn from the lower section, and the luminescence intensity of the fluid in the lower section was quantified using a luminescence photometer (494/520 nm). Regarding the calibration curve and the observed luminescence intensity, the permeation level of FITC-dextran across the Transwell chamber was computed (µg/mL).

CC[C@H](C)[C@H](NC(=O)[C@H](CC(C)C)NC(=O)[C@H](Cc1c[nH]c2ccccc12)NC(=O)[C@H](CCC(N)=O)NC(=O)[C@@H](NC(=O)[C@H](Cc1ccccc1)NC(=O)[C@H](C)NC(=O)[C@H](CCCCNC(=O)COCCOCCNC(=O)COCCOCCNC(=O)CC[C@H](NC(=O)CCCCCCCCCCCCCCCCCCC(=O)O)C(=O)O)NC(=O)[C@H](CCC(N)=O)NC(=O)[C@H](C)NC(=O)[C@@H](NC(=O)[C@H](CCCCN)NC(=O)[C@H](CC(=O)O)NC(=O)[C@H](CC(C)C)NC(=O)C(C)(C)NC(=O)[C@@H](NC(=O)[C@H](CO)NC(=O)[C@H](Cc1ccc(O)cc1)NC(=O)[C@H](CC(=O)O)NC(=O)[C@H](CO)NC(=O)[C@@H](NC(=O)[C@H](Cc1ccccc1)NC(=O)[C@@H](NC(=O)CNC(=O)[C@H](CCC(=O)O)NC(=O)C(C)(C)NC(=O)[C@@H](N)Cc1ccc(O)cc1)[C@@H](C)O)[C@@H](C)O)[C@@H](C)CC)[C@@H](C)CC)C(C)C)C(=O)N[C@@H](C)C(=O)NCC(=O)NCC(=O)N1CCC[C@H]1C(=O)N[C@@H](CO)C(=O)N[C@@H](CO)C(=O)NCC(=O)N[C@@H](C)C(=O)N1CCC[C@H]1C(=O)N1CCC[C@H]1C(=O)N1CCC[C@H]1C(=O)N[C@@H](CO)C(N)=O [TZP, Tirzepatide]
C/EBP-α levels (mRNA, protein) (C/EBP-α): largely promoted | Behavioral toxicity (MCAO mice [1]): no overt behavioral toxicity | Claudin-1 levels (mRNA) (Claudin-1; MCAO + C/EBP-α-/- + TZP vs. MCAO + TZP): strikingly repressed | Claudin-1 levels (mRNA) (Claudin-1; MCAO + TZP WT mice vs. MCAO): sharply enhanced | Claudin-1 expressions in cortex tissue (mRNA, protein by immunostaining) (Claudin-1; MCAO + TZP vs. MCAO (markedly diminished), 10 nmol/kg i.p. weekly, 8 weeks): strikingly enhanced | Claudin-1 expressions in cortex tissue (mRNA, protein by immunostaining) (Claudin-1; TZP group (sham-operated, 10 nmol/kg i.p. weekly, 8 weeks) vs. Sham): remarkably enhanced | Infarct volume (% of the ipsilateral hemisphere) (MCAO mice [2]): 18.7 ± 3.1% | FITC concentrations in the lower chamber (FITC-dextran permeation) (HBMVECs; OGD/R + 50 nM TZP, 24 h, control 0.41, OGD/R 1.15, Fig. 6A): 0.83 mg/mL | FITC concentrations in the lower chamber (FITC-dextran permeation) (HBMVECs; OGD/R + 100 nM TZP, 24 h, control 0.41, OGD/R 1.15, Fig. 6A): 0.57 mg/mL | FITC concentrations in the lower chamber (FITC-dextran permeation) (HBMVECs; sh-C/EBP-α experiment, OGD/R + TZP (100 nM), control 0.42, OGD/R 1.03, Fig. 9B): 0.61 mg/mL | FITC concentrations in the lower chamber (FITC-dextran permeation) (HBMVECs; sh-C/EBP-α experiment, OGD/R + sh-C/EBP-α + TZP (100 nM), control 0.42, OGD/R 1.03, Fig. 9B): 0.93 mg/mL
